Measured values from patent US20230104936A1, “TRPML MODULATORS” (Casma Therapeutics, Inc., priority 2019, published 2023).

System: TFEB
Assay: TFEB nuclear translocation assay, HeLa wt cells
Assay type: cell-based
Conditions: 2 hrs compound treatment, Table 1 does not say HeLa wt or TRPML1 KO
Procedure: For the TFEB nuclear translocation assay, HeLa wt or HeLa TRPML1 KO cells were plated at 2700 cells/well into black-walled, 384-well Cell carrier Ultra tissue culture treated plates in complete media and incubated overnight. The next day, cells are treated for 2 hrs with compounds and incubated at 37° C. Cells were then fixed for 30 minutes at room temperature in 4% final PFA and washed five times with 90 μL PBS. PBS is aspirated from the wells and the cells are blocked with 7.5 μL blocking buffer (1:1 PBS/Odyssey block buffer containing 0.1% triton x-100 and 1% goat serum). After 30-60 minutes of block, 7.5 μL of primary anti-TFEB (rabbit) antibody is added for a final dilution of 1:200 antibody in 15 μL blocking buffer. Plates are incubated overnight at 4° C. The following day, plates are washed again into PBS, 90 μL with 5 washes, all PBS is aspirated from the wells and the cells are incubated for 1 hr in 1:1000 goat-anti rabbit Alexa 488 secondary antibody, also containing 10 μg/mL Hoechst 33342. After the 1 hr room temperature incubation, plates are washed a final time into PBS, sealed with foil and imaged with an automated epifluorescence microscopy (PerkinElmer Operetta CLS). Four different fields were imaged per well using ×20 magnification for DAPI and FITC filter sets. Images were quantified using PerkinElmer Harmony software, briefly: apply flatfield correction (basic/advanced) for input images. Use the Find Nuclei building block with channel set at Hoechst to find the nuclei. Use the Find cytoplasm building block with channel set to Alexa 488 to find the cytoplasm. Use select cell region with Channel set at Alexa 488 and region of interest as Nuclei and define outer border at 0 μm and inner at 45 μm to cover complete nuclei. Use select cell region with Channel set at Alexa 488 and region of interest as ring region and define outer border at −5 μm and inner at 0 μm to define a ring around the nucleus. Use the find calculate intensity parameter to calculate intensity of the nuclear region and the ring region. Define results as Number of nuclei and ratio of A/B where A is Intensity of Nuclei and B is intensity of the ring region.
The compound numbers correspond to the compound numbers above in Tables A or B. Compounds having an activity designated as “++++” provided an AC50 of ≤2.00 μM; compounds having an activity designated as “+++” provided an AC50 of 2.01-8.00 μM; compounds having an activity designated as “++” provided an AC50 of 8.01-9.99 μM; and compounds having an activity designated as “+” provided an AC50 of ≥10.00 μM.

| Structure (SMILES) | AC50 | AC50 (Homo sapiens, HeLa, 2 h) |
| --- | --- | --- |
| CC(c1cccc(F)c1N1CCCCC1)S(=O)(=O)c1ccc2c(c1)CCS2(=N)=O (single isomer, unassigned) [Compound A-960] | ≥ 10 µM | – |
| CC(c1cccc(F)c1N1CCC(COC(C)(C)C)CC1)S(=O)(=O)c1ccc(S(=N)(=O)N(C)C)cc1 (single isomer, unassigned) [Compound A-961, 4-((1-(2-(4-(tert-butoxymethyl)piperidin-1-yl)-3-fluorophenyl)ethyl)sulfonyl)-N,N-dimethylbenzenesulfonimidamide] | ≥ 10 µM | – |
| CC(c1cccc(F)c1N1CCC(COC(C)(C)C)CC1)S(=O)(=O)c1ccc(S(=N)(=O)N(C)C)cc1 (single isomer, unassigned) [Compound A-962, 4-((1-(2-(4-(tert-butoxymethyl)piperidin-1-yl)-3-fluorophenyl)ethyl)sulfonyl)-N,N-dimethylbenzenesulfonimidamide] | ≤ 2 µM | – |
| CC(c1cccc(F)c1N1CCC(C)(C(F)F)CC1)S(=O)(=O)c1ccc(C(F)F)cc1 (single isomer, unassigned) [Compound A-963, 4-(difluoromethyl)-1-(2-(1-((4-(difluoromethyl)phenyl)sulfonyl)ethyl)-6-fluorophenyl)-4-methylpiperidine] | – | 2.01 to 8 µM |
| CC(c1cccc(F)c1N1CCC(C)(C(F)F)CC1)S(=O)(=O)c1ccc(C(F)F)cc1 (single isomer, unassigned) [Compound A-964, 4-(difluoromethyl)-1-(2-(1-((4-(difluoromethyl)phenyl)sulfonyl)ethyl)-6-fluorophenyl)-4-methylpiperidine] | ≤ 2 µM | – |
| Cc1ccc(S(=O)(=O)C(C)c2cccc(F)c2N2CCC(CN3C4CCC3COC4)CC2)cc1 (single isomer, unassigned) [Compound A-965, 8-((1-(2-fluoro-6-(1-tosylethyl)phenyl)piperidin-4-yl)methyl)-3-oxa-8-azabicyclo[3.2.1]octane] | ≥ 10 µM | – |
| CC(c1cccc(F)c1N1CCOCC1)S(=O)(=O)c1ccc2c(c1)CCS2(=O)=O (single isomer, unassigned) [Compound A-966, 5-((1-(3-fluoro-2-morpholinophenyl)ethyl)sulfonyl)-2,3-dihydrobenzo[b]thiophene 1,1-dioxide] | – | ≥ 10 µM |
| CC(c1cccc(F)c1N1CCOCC1)S(=O)(=O)c1ccc2c(c1)CCS2(=O)=O (single isomer, unassigned) [Compound A-967, 5-((1-(3-fluoro-2-morpholinophenyl)ethyl)sulfonyl)-2,3-dihydrobenzo[b]thiophene 1,1-dioxide] | ≥ 10 µM | – |
| CC(c1cccc(F)c1N1CCC(C)(C(F)F)CC1)S(=O)(=O)c1ccc(S(=N)(=O)N(C)C)cc1 (single isomer, unassigned) [Compound A-974, 4-((1-(2-(4-(difluoromethyl)-4-methylpiperidin-1-yl)-3-fluorophenyl)ethyl)sulfonyl)-N,N-dimethylbenzenesulfonimidamide] | ≤ 2 µM | – |
| CC(c1cccc(F)c1N1CCC(C)(C(F)F)CC1)S(=O)(=O)c1ccc(S(=N)(=O)N(C)C)cc1 (single isomer, unassigned) [Compound A-975, 4-((1-(2-(4-(difluoromethyl)-4-methylpiperidin-1-yl)-3-fluorophenyl)ethyl)sulfonyl)-N,N-dimethylbenzenesulfonimidamide] | ≥ 10 µM | – |
| CC(c1cccc(F)c1N1CCC(COC(C)(C)C)CC1)S(=O)(=O)c1ccc(C(F)F)cc1 (single isomer, unassigned) [Compound A-976, 4-(tert-butoxymethyl)-1-(2-(1-((4-(difluoromethyl)phenyl)sulfonyl)ethyl)-6-fluorophenyl)piperidine] | – | ≤ 2 µM |
| CC(c1cccc(F)c1N1CCC(COC(C)(C)C)CC1)S(=O)(=O)c1ccc(C(F)F)cc1 (single isomer, unassigned) [Compound A-977, 4-(tert-butoxymethyl)-1-(2-(1-((4-(difluoromethyl)phenyl)sulfonyl)ethyl)-6-fluorophenyl)piperidine] | 2.01 to 8 µM | – |
| CC(c1cc(Cl)cnc1N1CCC(CN2CCC(F)(F)CC2)CC1)S(=O)(=O)c1ccc(S(=O)(=O)N(C)C)cc1 (single isomer, unassigned) [Compound A-978, 4-((1-(5-chloro-2-(4-((4,4-difluoropiperidin-1-yl)methyl)piperidin-1-yl)pyridin-3-yl)ethyl)sulfonyl)-N,N-dimethylbenzenesulfonamide] | – | ≤ 2 µM |
| CC(c1cc(Cl)cnc1N1CCC(CN2CCC(F)(F)CC2)CC1)S(=O)(=O)c1ccc(S(=O)(=O)N(C)C)cc1 (single isomer, unassigned) [Compound A-979, 4-((1-(5-chloro-2-(4-((4,4-difluoropiperidin-1-yl)methyl)piperidin-1-yl)pyridin-3-yl)ethyl)sulfonyl)-N,N-dimethylbenzenesulfonamide] | 2.01 to 8 µM | – |
| CC(c1cccc(F)c1N1CCCCC1)S(=O)(=O)c1ccc(S2(=O)=NCCC2)cc1 (single isomer, unassigned) [Compound A-980, 1-(4-((1-(3-fluoro-2-(piperidin-1-yl)phenyl)ethyl)sulfonyl)phenyl)-4,5-dihydro-3H-isothiazole 1-oxide] | ≥ 10 µM | – |
| CC(c1cccc(F)c1N1CCCCC1)S(=O)(=O)c1ccc(S2(=O)=NCCC2)cc1 (single isomer, unassigned) [Compound A-981, 1-(4-((1-(3-fluoro-2-(piperidin-1-yl)phenyl)ethyl)sulfonyl)phenyl)-4,5-dihydro-3H-isothiazole 1-oxide] | ≥ 10 µM | – |
| CN(C)S(=O)(=O)c1ccc(S(=O)(=O)C(c2cccc(F)c2N2CCCCC2)C2CC2)cc1 (single isomer, unassigned) [Compound A-982, 4-((cyclopropyl(3-fluoro-2-(piperidin-1-yl)phenyl)methyl)sulfonyl)-N,N-dimethylbenzenesulfonamide] | – | ≤ 2 µM |
| CN(C)S(=O)(=O)c1ccc(S(=O)(=O)C(c2cccc(F)c2N2CCCCC2)C2CC2)cc1 (single isomer, unassigned) [Compound A-983, 4-((cyclopropyl(3-fluoro-2-(piperidin-1-yl)phenyl)methyl)sulfonyl)-N,N-dimethylbenzenesulfonamide] | ≤ 2 µM | – |
| CC(c1cccc(F)c1N1[C@@H]2CCC[C@H]1CC2)S(=O)(=O)c1ccc(S(=N)(=O)N(C)C)cc1 (single isomer, unassigned) [Compound A-988, 4-((1-(2-(8-azabicyclo[3.2.1]octan-8-yl)-3-fluorophenyl)ethyl)sulfonyl)-N,N-dimethylbenzenesulfonimidamide] | – | ≥ 10 µM |
| CC(c1cccc(F)c1N1[C@@H]2CCC[C@H]1CC2)S(=O)(=O)c1ccc(S(=N)(=O)N(C)C)cc1 (single isomer, unassigned) [Compound A-989, 4-((1-(2-(8-azabicyclo[3.2.1]octan-8-yl)-3-fluorophenyl)ethyl)sulfonyl)-N,N-dimethylbenzenesulfonimidamide] | 8.01 to 9.99 µM | – |
| Cc1cnc(N2CCC(CN3CCC(F)(F)CC3)CC2)c(C(C)S(=O)(=O)c2ccc(S(=O)(=O)N(C)C)cc2)c1 (single isomer, unassigned) [Compound A-990, 4-((1-(2-(4-((4,4-difluoropiperidin-1-yl)methyl)piperidin-1-yl)-5-methylpyridin-3-yl)ethyl)sulfonyl)-N,N-dimethylbenzenesulfonamide] | ≤ 2 µM | – |
| CC(c1cccc(F)c1N1CCCCC1)S(=O)(=O)c1ccc(S2(=O)=NCCC2)cc1 (single isomer, unassigned) [Compound A-991, 1-(4-((1-(3-fluoro-2-(piperidin-1-yl)phenyl)ethyl)sulfonyl)phenyl)-4,5-dihydro-3H-isothiazole 1-oxide] | 2.01 to 8 µM | – |
| CC(c1cccc(F)c1N1CCCCC1)S(=O)(=O)c1ccc(S2(=O)=NCCC2)cc1 (single isomer, unassigned) [Compound A-992, 1-(4-((1-(3-fluoro-2-(piperidin-1-yl)phenyl)ethyl)sulfonyl)phenyl)-4,5-dihydro-3H-isothiazole 1-oxide] | ≥ 10 µM | – |
| CC(c1cc(Cl)cnc1N1CCC(CN2CCC(F)(F)CC2)CC1)S(=O)(=O)c1ccc2c(c1)CCC2 (single isomer, unassigned) [Compound A-993, 5-chloro-2-(4-((4,4-difluoropiperidin-1-yl)methyl)piperidin-1-yl)-3-(1-((2,3-dihydro-1H-inden-5-yl)sulfonyl)ethyl)pyridine] | – | ≤ 2 µM |
